row,Compound,melting point [°C]
1,COc1ccc(NC(=O)c2ccccc2F)c(C(C)=O)c1OC,106 to 108
2,Cc1cc(C)c2ncc(NC(=O)C3(C)CCc4c(C)c(O)c(C)c(C)c4O3)c(-c3ccccc3Cl)c2c1 (configuration not stated),222 to 224
3,CC(C)Cn1c(=O)n(C)c(=O)c2c1ncn2CCCO,135 to 137
4,COc1cc(OCc2ccc(C(=O)N(C)C3CCCCC3)cc2)cc(OC)c1OC,116
5,Cc1c(Br)c(Br)c(C)c(Br)c1Br,247 to 249
6,CC1(C)Oc2ccc(CC3SC(=O)NC3=O)cc2CC1c1ccccc1 (configuration not stated),53 to 68
7,CCCOc1ccc(CN2CCC(C(N)=O)CC2)cc1,142 to 146
8,COc1ccc2c(c1)-c1ccccc1C=CC(O)=C2,97 to 99
9,O=C(O)CCCCCOc1cc(-c2ccccc2)cc(-c2ccccc2)c1,104
10,Cn1c(NCCCOc2cccc(CN3CCCCC3)c2)nc2ccccc21,153 to 154
11,Cn1nc(N)nc1NCCCOc1cccc(CNCC(F)(F)F)c1,62 to 64
12,CC(C)(C)OC(=O)CN(C(=O)CNC(=O)Nc1cccc(CC(=O)O)c1)c1ccccc1C(=O)c1ccccc1,96 to 98
13,CCCCNC(=O)NS(=O)(=O)c1ccccc1-c1ccc(C(=O)OC)o1,145 to 148
14,O=C(O)CCNC(=O)C=Cc1ccccc1,140 to 144
15,CC(C)c1cc(C(C)C)c2ncn(/C=C/C(=O)O)c(=O)c2c1,181 to 182
16,O=C(NC1CCN(CCc2ccccc2)CC1)C1=Cc2cnc3cccc(n23)S1,216 to 217
17,CC(=O)c1nn(-c2c(Cl)cc(C(F)(F)F)cc2Cl)c(N)c1S(C)(=O)=O,77 to 79
18,CCSc1ccc2c3c([nH]c2c1)CCCCC3C (configuration not stated),44
19,O=C1c2ccccc2C(=O)N1CCCCCCCCCCOc1ccc(-n2ccnc2)cc1,90 to 91
20,CCC1(C)CC(O)C2(C)CCC3c4ccc(O)cc4CCC3C12 (configuration not stated),132 to 136
21,CCS(=O)(=O)C(=CNc1ccc(Cl)cc1)S(=O)(=O)CC,173 to 175
22,Cc1ccc(S(=O)(=O)Nc2ccc(C#N)cc2)cc1,182 to 184
23,CCOC(=O)C1=Cc2cc(Cl)c(O)cc2OC1C(F)(F)F (configuration not stated),118 to 125
24,Cc1oc(-c2ccccc2)nc1CCOc1ccc(COc2cc3ccccc3cc2C(=O)O)cc1,135 to 137
25,Cc1cc(NC(=O)OC(C)(C)C)c([N+](=O)[O-])cc1C#Cc1ccccc1,161 to 164
26,CC(C)=CCCC(C)=CCCC(C)=CCCC(C)=CC=CC(C)=CC(=O)O,45.5 to 46.5

row,Compound,melting point [°C]
1,Cc1nc2cc(-n3cccc3)ccc2s1,91 to 96
2,CON(C)C(=O)Cc1cc(Oc2ccc(C(F)(F)F)cc2Cl)ccc1[N+](=O)[O-],134 to 135
3,CC(O)(c1nc(-c2ccc(F)cc2)c(-c2ccc(F)cc2)[nH]1)C(F)(F)F (configuration not stated),191 to 192
4,O=c1nc(NCCCOc2cccc(CN3CCCCC3)c2)c2ccccc2[nH]1,219 to 221
5,COc1ccc(F)cc1C(C)(C)CC(O)(Cc1ccccn1)C(F)(F)F (configuration not stated),94 to 96
6,Clc1ccc2c(c1)CSCCCN2,54 to 55
7,NNC(=O)NN=Cc1ccc(Cl)cc1,188 to 189
8,COc1ccc2[nH]c3cnc4c(c3c2c1)C(=O)CC(C)(C)C4,230 to 231
9,CC(=O)Oc1c(C(C)(C)C)cc(C=O)cc1C(C)(C)C,65.2 to 74.5
10,NC(=O)C1(N2C(=O)c3ccccc3C2=O)CCCCC1,224 to 226
11,COc1cnc(NCCCOc2cccc(CN3CCCCC3)c2)[nH]c1=O,148 to 150
12,COC(=O)c1cccc(-c2ccncn2)c1,69 to 71
13,Cc1nc(/C=C/c2cn(-c3ccccc3)nc2O)cs1,211 to 212
14,CC1(C)Nc2cc(Br)ccc2-n2cccc21,89 to 91
15,O=C(NOC1CCCCO1)c1ccc(-c2ccc3ncnc(Nc4ccc(OCc5cccc(F)c5)c(Cl)c4)c3c2)o1 (configuration not stated),221
16,N#CC(C#N)=C1Sc2nc3ccc(C#N)cc3nc2S1,278 to 281
17,CCCCc1nc2ccccn2c(=O)c1-c1ccc(OS(=O)(=O)C(F)(F)F)cc1,106 to 108
18,Cc1ccccc1-c1ccc(C=O)cn1,82 to 84
19,Cn1cncc1Cn1nnnc1-c1cccc(Cl)c1Cl,166 to 168
20,O=S(=O)(F)c1ccc(N=Nc2ccc(O)c(Cl)c2)cc1,133 to 134
21,O=C(O)c1ccc(NC(=O)c2ccc(Br)nc2)nc1,270 to 272
22,Cc1ccc2c(c1)C(CCCCOS(C)(=O)=O)C(=O)N2 (configuration not stated),89 to 90
23,CN1C(=O)CC[C@]2(C)c3ccc(SCc4nc5ccccc5s4)cc3CC[C@@H]12,78 to 80
24,O=C1NC(=O)C(Cc2ccc(OCc3cn4ccccc4n3)cc2)S1 (configuration not stated),197 to 202
25,O=C(O)Cc1cc(C=Cc2ccccc2)ccc1O,202
26,N#Cc1cc(C(=O)NN2CCOCC2)ccc1OCC(=O)O,205 to 206

row,Compound,melting point [°C]
1,CCOC(=O)C1=Cc2cc(C)ccc2SC1C(F)(F)F (configuration not stated),93.1 to 94.7
2,CCCCCCCCCCCCN(c1nc(Cl)nc(Cl)n1)c1nc(Cl)nc(Cl)n1,50 to 53
3,CCOC(=O)C(=O)N(CCBr)N=Cc1ccccc1,56 to 57
4,CS(=O)(=O)Nc1cc2oc(N)c(C(N)=O)c(=O)c2cc1Oc1ccccc1,> 250
5,CC(C)(C)OC(=O)N[C@H]1CC[C@H](CCN2CCCN(c3cccc(Cl)c3Cl)CC2)CC1,95 to 98
6,CC(OC(C)c1ccc(-c2ccc(Cl)cc2)cc1)C(=O)O (configuration not stated),144 to 146
7,CCCC1=C(C(=O)OCC)C(c2cccc(F)c2C)c2c[nH]nc2N1 (configuration not stated),159 to 162
8,CC(=O)Nc1cccc(C#CCCn2nc3ccccc3n2)n1,93 to 94
9,O=C(O)Cc1ccc(C(NC(=O)c2ccccc2)C(=O)O)cc1 (configuration not stated),180 to 220
10,CN(c1ccccc1)c1nc(Cl)nc(Cl)n1,132
11,CCC(Cl)C(=O)Nc1c(C(=O)CC(=O)Nc2nccs2)cccc1C(F)(F)F (configuration not stated),170
12,CCCCCS(=O)(=O)NC(=O)CCc1ccc(OCCOC)cc1OCC1CCCCC1,81 to 82
13,O=C(CCl)Nc1nc2cc3nc(NC(=O)CCl)sc3cc2s1,330
14,NNC(=O)c1ccc2[nH]nnc2c1,295 to 296
15,O=C(c1ccc(-c2ccc(=O)n(-c3ccc(F)cc3)n2)cc1)N1CCC[C@H]1CN1CCCC1,177
16,CC1=CC(=O)c2nc3n(c2C1=O)CCC3,162 to 164
17,CCOC(=O)c1ccc(C(=O)c2ccc(OC)cc2)cc1,74 to 81
18,COc1ccc(-c2nc(N3CCOCC3)sc2-c2ccc(OC)cc2)cc1,133 to 135
19,CCC(CC)Nc1nc(-c2cc(OC)c(OC)c(OC)c2)nc2sc(C#N)c(C)c12,226 to 228
20,O=C(O)CSc1nccn1Cc1cc(F)cc(F)c1,101 to 103
21,COc1ccc(NC(=O)c2ccc(-c3ccc(-c4noc(C)n4)cc3)c(Cl)c2)cc1N1CCN(C)CC1,93 to 95
22,C=C(C(=O)O)c1ccccc1OC,144
23,COC(=O)C(=CC(=CN(C)C)c1ccc(C)cc1[N+](=O)[O-])[N+](=O)[O-],213 to 215
24,N#CCc1ccc(NS(=O)(=O)c2ccc(N3CCNC3=O)cc2)cc1,204 to 206
25,Nc1ccc2nc(CN3CCCC3)ccc2c1,102 to 104
26,COc1cc2c(c3c1OC(C)(C)C3)C(c1ccc(NS(C)(=O)=O)cc1)=NC(C)(C)C2,235 to 237

row,Compound,melting point [°C]
1,O=C(c1ccc(F)cc1)c1ccc2n1CCCC2C(=O)O (configuration not stated),161 to 162
2,O=C(Nc1ccc(F)cc1F)Nc1cnc2cc3c(cc2c1-c1ccccc1Cl)CCC3,247 to 248
3,Cc1noc(NS(=O)(=O)c2ccccc2-c2ccc(-c3ncco3)cc2O)c1C,111 to 115
4,CCCCNCCOc1ccc(NC(=O)c2c[nH]c3c2C(=O)CCC3)cc1F,290 to 292
5,CN(Cc1ccc(NC(=O)C2=Cc3cc(Br)ccc3CCC2)cc1)C1CCOCC1,116 to 121
6,OC(c1ccc(OCc2ccccc2)cc1)c1ccc(OCc2ccccc2)cc1,113 to 120
7,CCCCN(CCCC)c1ccc(C=Cc2ccc(C=CC3=C(C#N)C(=C(C#N)C#N)OC3(C)C)s2)c(O[Si](c2ccccc2)(c2ccccc2)C(C)(C)C)c1,218 to 219
8,O=C(Nc1ccc(-c2ccnc3c(C(=O)c4cccs4)cnn23)s1)c1ccccc1,162 to 165
9,ON=C1c2sccc2-n2cccc21,172
10,CC(=O)N1CCN(CCSc2ccnc(CSc3nc4ccccc4[nH]3)c2C)CC1,129 to 131
11,CCOC(=O)Oc1ccc(/C=C/C(=O)O)cc1,173 to 176
12,COc1ccc(Oc2ccc(C(=O)N(C3CCCCC3)C3CCCC3)cc2)cc1OC,154
13,CCOC(=O)Nc1cc(N[C@H](C)C(=O)c2ccccc2)c([N+](=O)[O-])c(N)n1,150 to 155
14,CCS(=O)(=O)N(C(C)=O)c1cc(-n2nc(C(F)(F)F)n(C)c2=O)c(F)cc1C#N,179
15,Cn1cncc1C(c1ccc(Cl)cc1)c1ccc2c(c1)C(c1cccc(Cl)c1)SCCC(=O)N2 (configuration not stated),199
16,N#Cc1ccc(C(=O)NC2CCCNC(=O)C2)cc1 (configuration not stated),189 to 190
17,O=C(O)Cc1cc(C(=O)Cc2ccccc2)ccc1O,198
18,COc1ccc2ccc(N3C(=O)c4ccccc4C3OCC(=O)CC(C)C)nc2n1 (configuration not stated),120
19,CCc1nnc2c(N(CC)CC)nc3cc(Cl)c(Cl)cc3n12,147 to 149
20,S=C(N1CCC(c2ccccc2)(c2ccccc2)CC1)n1ccnc1,161 to 165
21,CS(=O)(=O)c1ccc(-c2nn3c(-c4ccc(F)cc4)coc3c2-c2ccc(F)cc2)cc1,200 to 202
22,CN(C)c1c(CC(=O)O)cccc1C(=O)c1ccccc1,144 to 146
23,CC(C)(C=C=CC(=O)O)c1ccc(Cl)cc1,64 to 67
24,O=C(O)CC(Sc1ccccc1)c1ccccc1 (configuration not stated),85 to 90
